# In paper PMC6338780, “Structural elements of a pH-sensitive inhibitor binding site in NMDA receptors” (Nature Communications, 2019):
# Where “and” joins values, the source holds several entries; their conditions need not be identical. Identical values can stand only once. Marks after values point to notes of the source that are not given here.
# Assays:
# [1] = target: T1, GluN1-4a(H134A)/GluN2B NMDA receptor (Rattus norvegicus, UniProt P35439+Q00960, H134A); assay: TEVC concentration–response, GluN1-4a(H134A) mutant; type: cell-based; details: pH 7.6; BAPTA (Table 3)
# T1 construct: compared to that observed for full-length receptors in TEVC recordings; expressed in transfected cells; host or cells: Xenopus laevis oocytes, cRNA injection
# Method: Missense mutations were introduced into rat cDNAs encoding GluN1-4a and GluN2B in the pGEM-HE vector using the QuikChange protocol (Stratagene) using the primers listed in Supplementary Table 2. These plasmids were then linearized with NotI and used as templates for cRNA synthesis (Ambion). A total mass of 5–10 ng cRNA at a 1:2 weight ratio of GluN1-4a and GluN2B transcripts was co-injected into defolliculated Xenopus laevis oocytes (EcoCyte Bioscience). […] Voltage clamp was achieved and current responses were recorded at a holding potential of –40 mV with a two-electrode voltage clamp amplifier (Warner) at room temperature (~23 °C). Currents were low-pass filtered at 10 Hz and digitized at 20 Hz by LabWindows/CVI (National Instruments). Maximal effective concentrations of glutamate and glycine (100 and 30 μM, respectively) were used in all recordings.
# [2] = target: T2, GluN1-4a/GluN2B (WT) NMDA receptor (Rattus norvegicus, UniProt P35439+Q00960); assay: TEVC concentration–response in Xenopus oocytes, wild type GluN1-4a/GluN2B; type: cell-based; details: for Ifenprodil DR, response at 0.01: ifenprodil at 0.01; for Ifenprodil DR, response at 0.01 / Ifenprodil DR, response at 0.03 / Ifenprodil DR, response at 0.1: relative to 100/100 G/G; for Ifenprodil DR, response at 0.03: ifenprodil at 0.03; for Ifenprodil DR, response at 0.1: ifenprodil at 0.1
# T2 construct: compared to that observed for full-length receptors in TEVC recordings; expressed in transfected cells; host or cells: Xenopus laevis oocytes, cRNA injection
# Method: Missense mutations were introduced into rat cDNAs encoding GluN1-4a and GluN2B in the pGEM-HE vector using the QuikChange protocol (Stratagene) using the primers listed in Supplementary Table 2. These plasmids were then linearized with NotI and used as templates for cRNA synthesis (Ambion). A total mass of 5–10 ng cRNA at a 1:2 weight ratio of GluN1-4a and GluN2B transcripts was co-injected into defolliculated Xenopus laevis oocytes (EcoCyte Bioscience). The oocytes were incubated in Barth’s solution containing 88 mM NaCl, 2.4 mM NaHCO3, 1 mM KCl, 0.33 mM Ca(NO3)2, 0.41 mM CaCl2, 0.82 mM MgSO4, and 5 mM HEPES, at a final pH of 7.4, supplemented with 0.1 mg mL^−1 gentamicin sulfate, 1 μg mL^−1 streptomycin, and 1 U mL^−1 penicillin at 15–19 °C. TEVC current recordings were performed 2–4 days after injection using an extracellular recording solution containing 90 mM NaCl, 10 mM HEPES, 1 mM KCl, 0.5 mM BaCl2, and 0.01 mM EDTA at either pH 6.9 or pH 7.6[39]. Voltage clamp was achieved and current responses were recorded at a holding potential of –40 mV with a two-electrode voltage clamp amplifier (Warner) at room temperature (~23 °C). Currents were low-pass filtered at 10 Hz and digitized at 20 Hz by LabWindows/CVI (National Instruments). […]
# [3] = target: T3, GluN1-4a(Y109W)/GluN2B NMDA receptor (Rattus norvegicus, UniProt P35439+Q00960, Y109W); assay: TEVC concentration–response, GluN1-4a(Y109W) mutant; type: cell-based; details: pH 7.6; BAPTA (Table 3)
# T3 construct: compared to that observed for full-length receptors in TEVC recordings; expressed in transfected cells; host or cells: Xenopus laevis oocytes, cRNA injection
# Method: Missense mutations were introduced into rat cDNAs encoding GluN1-4a and GluN2B in the pGEM-HE vector using the QuikChange protocol (Stratagene) using the primers listed in Supplementary Table 2. These plasmids were then linearized with NotI and used as templates for cRNA synthesis (Ambion). A total mass of 5–10 ng cRNA at a 1:2 weight ratio of GluN1-4a and GluN2B transcripts was co-injected into defolliculated Xenopus laevis oocytes (EcoCyte Bioscience). The oocytes were incubated in Barth’s solution containing 88 mM NaCl, 2.4 mM NaHCO3, 1 mM KCl, 0.33 mM Ca(NO3)2, 0.41 mM CaCl2, 0.82 mM MgSO4, and 5 mM HEPES, at a final pH of 7.4, supplemented with 0.1 mg mL^−1 gentamicin sulfate, 1 μg mL^−1 streptomycin, and 1 U mL^−1 penicillin at 15–19 °C. TEVC current recordings were performed 2–4 days after injection using an extracellular recording solution containing 90 mM NaCl, 10 mM HEPES, 1 mM KCl, 0.5 mM BaCl2, and 0.01 mM EDTA at either pH 6.9 or pH 7.6[39]. Voltage clamp was achieved and current responses were recorded at a holding potential of –40 mV with a two-electrode voltage clamp amplifier (Warner) at room temperature (~23 °C). Currents were low-pass filtered at 10 Hz and digitized at 20 Hz by LabWindows/CVI (National Instruments). Maximal effective concentrations of glutamate and glycine (100 and 30 μM, respectively) were used in all recordings.
# [4] = target: T4, GluN1a–GluN2B ATD heterodimer (UniProt A0A1L8F5J9+Q00960, N348D/N350Q/N61Q); assay: ITC, ligands titrated into isolated GluN1a–GluN2B ATD heterodimer; type: binding, Xenopus GluN1a, rat GluN2B
# T4 construct: the ATD domains of Xenopus GluN1a and rat GluN2B; alkaline phosphatase secretion signal (N); 57 residue linker to the other ATD, with TEV protease sites (cleaved yes); made in house
# Text: In order to directly estimate binding affinities of these inhibitors for their binding site in the GluN1–GluN2B NMDA receptors, we performed ITC using the purified GluN1a–GluN2B ATD proteins titrated with ligands of various N-substituent lengths at pH 7.6 and pH 6.5 to mimic the extreme drop in pH that can occur at the ischemic core[1]–[4] (Fig. 2a, b; Supplementary Figures 2 and 3). Toward this end, we expressed the isolated […] GluN1a–GluN2B ATD heterodimer proteins in GnTI^− HEK293S cells. Here, for clarity we will call the GluN1 ATD with and without exon 5 GluN1b ATD and GluN1a ATD, respectively.
# To efficiently express the ATD domains of Xenopus GluN1a and rat GluN2B, we used the alkaline phosphatase secretion signal and fused the two domains with a 57 residue linker as described elsewhere, with the following modifications: due to an intrinsic thrombin site in the GluN2B ATD, we engineering Tobacco Etch Virus (TEV) protease sites into this construct to remove the linker. In addition, three glycosylation sites were removed by mutating GluN1a Asn61 and Asn371 to Gln, and GluN2B Asn348 was mutated to Asp.
# Cell cultures were maintained at 37 °C with 5% CO2 and grown to a density of 2.0–2.5 × 10^6 cells mL^−1, then infected with baculovirus. Sodium butyrate was added to the infected cells to a final concentration of 5 mM and culture medium containing secreted GluN1a–GluN2B ATD fusion protein was harvested 96 h after infection.
# Cells were removed from the medium by centrifugation and the clarified medium was concentrated and exchanged three times to cold TBS (200 mM NaCl, 20 mM Tris, pH 8.0) using tangential flow filtration with a molecular weight cutoff of 30 kDa (Pall Corporation). […] The following day, glutathione in a 10:1 ratio, reduced:oxidized, was added to the dialyzed protein to a final concentration of 3 mM, along with EDTA, pH 8.0, to a final concentration of 1 mM. Based on the protein yield, a 1:100 ratio of TEV protease (mass:mass, TEV:ATD) was added to the ATD solution and the reaction was incubated for 4 h at 18 °C. Next, EndoF1 endoglycosidase at a 1:5 ratio (mass:mass, EndoF1:ATD) was added to the ATD/TEV mixture and dialyzed overnight at room temperature to 2 L TBS with 10% glycerol and 20 mM imidazole.
# This sample was then dialyzed overnight at 4 °C to 2 L TBS with 20% glycerol. […]
# After dialysis, the protein sample was diluted to 10–15 μM and dimethyl sulfoxide (DMSO) was added to a final concentration of 1.5% (v/v), in order to match that of the ligand solution. […] Dilution enthalpy was calculated from post-saturation injections and subtracted from total heats, and the data were fit using a single-site model with the program OriginLab 7.5.
# [5] = target: GluN1b–GluN2B ATD heterodimer (Xenopus laevis; Rattus norvegicus, UniProt A0A1L8F5J9+Q00960, E186G/INS190[…]/N348D/N350Q/N61Q); assay: ITC, ifenprodil titrated into isolated GluN1b–GluN2B ATD used for crystallization; type: binding; details: pH 7.6
# [6] = target: GluN1b–GluN2B ATD heterodimer (Xenopus laevis; Rattus norvegicus, UniProt A0A1L8F5J9+Q00960, E186G/INS190SKKRNYENLDQLSYDNKRGPK/N348D/N350Q/N61Q); assay: as above; type: binding; details: pH 7.6
# Chain of UniProt Q00960 (Q00960 32-394 N348D, other chains not shown): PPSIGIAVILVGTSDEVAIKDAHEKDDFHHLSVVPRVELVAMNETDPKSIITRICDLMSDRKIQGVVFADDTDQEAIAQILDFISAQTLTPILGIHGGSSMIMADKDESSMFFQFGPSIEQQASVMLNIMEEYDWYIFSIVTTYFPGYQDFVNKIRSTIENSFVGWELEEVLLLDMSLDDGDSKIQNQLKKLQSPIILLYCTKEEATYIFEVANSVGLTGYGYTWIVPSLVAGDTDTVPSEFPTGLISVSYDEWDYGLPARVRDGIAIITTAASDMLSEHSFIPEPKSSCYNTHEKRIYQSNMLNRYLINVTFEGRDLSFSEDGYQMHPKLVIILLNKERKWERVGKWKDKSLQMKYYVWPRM
# T4 sequence (Q00960 31-394 N348D limits assumed, other chains not shown): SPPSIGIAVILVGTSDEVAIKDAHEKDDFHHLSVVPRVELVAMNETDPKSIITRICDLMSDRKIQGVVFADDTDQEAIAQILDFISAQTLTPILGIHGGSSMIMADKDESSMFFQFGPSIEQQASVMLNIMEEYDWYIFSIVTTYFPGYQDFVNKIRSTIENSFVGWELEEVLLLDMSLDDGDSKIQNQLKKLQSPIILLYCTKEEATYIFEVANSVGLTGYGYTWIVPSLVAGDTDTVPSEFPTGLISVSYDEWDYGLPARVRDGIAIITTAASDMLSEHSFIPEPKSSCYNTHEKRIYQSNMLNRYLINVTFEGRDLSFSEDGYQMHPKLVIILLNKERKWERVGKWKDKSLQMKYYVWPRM
# T2 sequence (Q00960 27-1482, other chains not shown): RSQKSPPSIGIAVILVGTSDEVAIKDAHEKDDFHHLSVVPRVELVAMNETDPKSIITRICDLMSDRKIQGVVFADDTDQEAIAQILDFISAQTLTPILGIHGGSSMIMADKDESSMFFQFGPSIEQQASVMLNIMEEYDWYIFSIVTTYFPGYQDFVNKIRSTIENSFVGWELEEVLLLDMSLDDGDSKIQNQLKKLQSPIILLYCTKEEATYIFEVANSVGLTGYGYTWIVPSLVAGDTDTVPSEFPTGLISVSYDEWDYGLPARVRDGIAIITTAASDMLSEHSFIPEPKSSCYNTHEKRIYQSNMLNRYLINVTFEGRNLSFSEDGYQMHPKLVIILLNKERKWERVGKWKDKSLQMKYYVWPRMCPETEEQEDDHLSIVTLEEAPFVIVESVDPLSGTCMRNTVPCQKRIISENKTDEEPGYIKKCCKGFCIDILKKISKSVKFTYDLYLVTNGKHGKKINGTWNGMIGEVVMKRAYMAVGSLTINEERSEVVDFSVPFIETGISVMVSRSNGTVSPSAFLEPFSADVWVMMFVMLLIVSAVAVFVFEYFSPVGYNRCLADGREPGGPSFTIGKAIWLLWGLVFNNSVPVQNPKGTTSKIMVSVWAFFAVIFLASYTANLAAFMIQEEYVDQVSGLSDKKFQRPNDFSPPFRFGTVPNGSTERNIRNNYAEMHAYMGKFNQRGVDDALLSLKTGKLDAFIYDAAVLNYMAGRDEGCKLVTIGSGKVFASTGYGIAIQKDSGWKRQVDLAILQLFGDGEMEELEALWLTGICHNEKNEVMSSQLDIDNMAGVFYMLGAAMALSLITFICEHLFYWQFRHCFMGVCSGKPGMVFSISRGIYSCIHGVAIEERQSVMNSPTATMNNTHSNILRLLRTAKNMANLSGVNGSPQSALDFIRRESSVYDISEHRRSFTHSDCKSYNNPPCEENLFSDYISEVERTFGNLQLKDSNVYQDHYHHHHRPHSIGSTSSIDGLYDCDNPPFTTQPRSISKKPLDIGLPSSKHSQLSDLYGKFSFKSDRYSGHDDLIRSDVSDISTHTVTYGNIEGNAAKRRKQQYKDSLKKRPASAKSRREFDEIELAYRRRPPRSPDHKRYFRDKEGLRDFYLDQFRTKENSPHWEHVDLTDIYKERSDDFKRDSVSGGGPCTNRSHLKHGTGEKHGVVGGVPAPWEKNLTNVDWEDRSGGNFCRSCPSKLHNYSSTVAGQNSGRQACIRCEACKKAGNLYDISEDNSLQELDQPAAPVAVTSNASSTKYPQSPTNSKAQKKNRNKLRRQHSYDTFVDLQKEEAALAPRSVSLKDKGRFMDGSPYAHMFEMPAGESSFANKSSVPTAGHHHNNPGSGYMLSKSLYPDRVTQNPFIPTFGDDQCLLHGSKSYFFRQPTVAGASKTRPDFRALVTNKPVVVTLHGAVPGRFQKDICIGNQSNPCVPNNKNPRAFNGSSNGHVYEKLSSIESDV
# T1 sequence (Q00960 27-1482, other chains not shown): as above
# T3 sequence (Q00960 27-1482, other chains not shown): as above
smiles,measurement,setting,value
"CC(C(O)c1ccc(O)cc1)N1CCC(Cc2ccccc2)CC1 (centres unmarked) [Ifenprodil, Ifenprodil hemitartrate]","% response, current at maximal ifenprodil potentiation",[1],"ND, 105%^f nH ND (9)"
same,nH,"[2]; 1-4a/2B WT, pH7.6, BAPTA, ifenprodil",0.8364 and 0.9502 and 1.0632 and 0.8875 and 0.8992 and 1.197 and 1.038
same,"Ifenprodil DR, response at 0.01","[2]; 1-4a/2B WT, pH7.6, BAPTA",89.9 and 98.2 and 90 and 89 and 92.8 and 95.6 and 95.4
same,"Ifenprodil DR, response at 0.01","[2]; 1-4a/2B WT, pH7.6, BAPTA, mean",92.9857
same,"Ifenprodil DR, response at 0.03","[2]; 1-4a/2B WT, pH7.6, BAPTA",78.8 and 96.7 and 76.5 and 75.3 and 82 and 88.4 and 87
same,"Ifenprodil DR, response at 0.03","[2]; 1-4a/2B WT, pH7.6, BAPTA, mean",83.5286
same,"Ifenprodil DR, response at 0.1","[2]; 1-4a/2B WT, pH7.6, BAPTA",64.2 and 90.5 and 49.1 and 54.7 and 63.1 and 64.1 and 66.9
same,"Ifenprodil DR, response at 0.1","[2]; 1-4a/2B WT, pH7.6, BAPTA, mean",64.6571
same,nH,"[2]; 1-4a/2B WT, pH7.6, BAPTA, ifenprodil, mean",0.9818
same,nH,"[2]; Ifenprodil DR, 1-4a/2B WT, pH7.6, BAPTA, single oocyte recordings, row 'mean' = mean",0.8875 and 0.8992 and 1.197 and 1.038 and 0.8364 and 0.9502 and 1.0632
same,nH,"[2]; Ifenprodil DR, 1-4a/2B WT, pH7.6, BAPTA, single oocyte recordings, row 'mean' = mean, mean",0.9818
same,% response,"[2]; current at 1 μM ifenprodil, pH 7.6, BAPTA",35%
same,nH,"[2]; pH 7.6, BAPTA (Table 3)",1.0
same,"% response, current at maximal ifenprodil potentiation",[3],"ND, 115%^f nH ND (9)"
same,Kd,[4]; pH 6.5,249 ± 16 nM
same,Kd,[4]; pH 7.6,226 ± 15 nM
same,n (ITC stoichiometry),[4]; pH 6.5,0.97 ± 0.01
same,n (ITC stoichiometry),[4]; pH 7.6,1.0 ± 0.01
same,n (ITC stoichiometry),[5],0.98 ± 0.01
same,Kd,[6],255 ± 11 nM
